According to patent publication US20060264447A1, “Fungicidal mixtures for controlling rice pathogens” (priority 2003, published 2006):

System: Cochliobolus miyabeanus
Assay: Activity against brown spot of rice caused by Cochliobolus miyabeanus, protective application
Type: in vivo
Conditions: individual active compound, rice seedlings Tai-Nong 67, protective spray, rated after six days
Description: The active compounds, separately or jointly, were prepared as a stock solution with 0.25% by weight of active compound in acetone or DMSO. 1% by weight of the emulsifier Uniperol® EL (wetting agent having emulsifying and dispersing action based on ethoxylated alkylphenols) was added to this solution, and the solution was diluted with water to the desired concentration.
Leaves of potted rice seedlings of the cultivar “Tai-Nong 67” were sprayed to runoff point with an aqueous suspension of the concentration of active compound stated below. The next day, the plants were inoculated with an aqueous spore suspension of Cochliobolus miyabeanus. The test plants were then placed in climatized chambers at 22-24° C. and 95-99% relative atmospheric humidity for six days. The extent of the development of the infection on the leaves was then determined visually.
Evaluation is carried out by determining the percentage of infected plants. These percentages were converted into efficacies.
The efficacy (E) is calculated as follows using Abbot's formula: E=(1−α/β)·100 α corresponds to the fungicidal infection of the treated plants in % and β corresponds to the fungicidal infection of the untreated (control) plants in %
An efficacy of 0 means that the infection level of the treated plants corresponds to that of the untreated control plants; an efficacy of 100 means that the treated plants are not infected.
The expected efficacies of mixtures of active compounds are determined using Colby's formula (Colby, R. S. Weeds, 15, 20-22, 1967) and compared with the observed efficacies.
Colby's formula: E=x+y−x·y/100 • E expected efficacy, expressed in % of the untreated control, when using the mixture of the active compounds A and B at the concentrations a and b • x efficacy, expressed in % of the untreated control, when using the active compound A at the concentration a • y efficacy, expressed in % of the untreated control, when using the active compound B at the concentration b

CC1CCN(c2c(-c3c(F)cccc3Cl)c(Cl)nc3ncnn23)CC1 [A]
Efficacy in % of the untreated control (4 ppm in the spray liquor): 29% | Efficacy in % of the untreated control (16 ppm in the spray liquor): 53%

C[C@H](Nc1c(-c2c(F)cc(F)cc2F)c(Cl)nc2ncnn12)C(F)(F)F [B]
Efficacy in % of the untreated control (4 ppm in the spray liquor): 5% | Efficacy in % of the untreated control (16 ppm in the spray liquor): 41%

CC1CCN(c2c(-c3c(F)cc(F)cc3F)c(Cl)nc3ncnn23)CC1 [compound I, 5-chloro-7-(4-methylpiperidin-1-yl)-6-(2,4,6-trifluorophenyl)-[1,2,4]triazolo[1,5-a]pyrimidine]
Efficacy in % of the untreated control (4 ppm in the spray liquor): 5% | Efficacy in % of the untreated control (16 ppm in the spray liquor): 17%

O=[N+]([O-])c1cc(C(F)(F)F)c(Cl)c([N+](=O)[O-])c1Nc1ncc(C(F)(F)F)cc1Cl [compound II, 3-chloro-N-[3-chloro-2,6-dinitro-4-(trifluoromethyl)phenyl]-5-(trifluoromethyl)-2-pyridinamine]
Efficacy in % of the untreated control (4 ppm in the spray liquor): 5% | Efficacy in % of the untreated control (16 ppm in the spray liquor): 17%
